From patent US8048825B2, “Haloalkylsulfonanilide derivatives or salt thereof, herbicide comprising the derivatives as active ingredient, and use of the herbicide” (Nihon Nohyaku Co., Ltd., priority 2006, dated 2011)

What was measured:
Format in all cases: in vivo
[1] = tested on: Echinochloa crus-galli; test: Herbicidal effect on paddy field weeds of post-emergence stage (Post), Test Example 2; details: one-leaf stage, 1000 g/ha as active ingredient, examined after 21 days
How it was run: (§1)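 Scirpus juncoides and Echinochloa crus-galli sown in clay loam, with Lindernia procumbens seed in the soil cover, under 5 cm flooding in greenhouse. At one-leaf stage, 1000 g/ha active ingredient applied to pot water. Efficacy scored visually 0–5 against untreated plants at 21 days after treatment.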

[2] = tested on: Lindernia procumbens; test: as above; details: one-leaf stage, 1000 g/ha as active ingredient, examined after 21 days
How it was run: as §1

[3] = tested on: Scirpus juncoides; test: as above; details: one-leaf stage, 1000 g/ha as active ingredient, examined after 21 days
How it was run: as §1

[4] = tested on: Lindernia procumbens; test: Herbicidal efficacy on paddy field weeds of pre-emergence stage (Pre), Test Example 1; details: 1000 g/ha as active ingredient, examined after 21 days
How it was run: (§2)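 Clay-loam pots sown with Scirpus juncoides, covered with soil containing Lindernia procumbens seed, flooded to 5 cm. Next day formulated compound applied dropwise to water at 1000 g/ha a.i. Greenhouse-grown; growth inhibition versus untreated scored 0–5 after 21 days.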

[5] = tested on: Scirpus juncoides; test: as above; details: 1000 g/ha as active ingredient, examined after 21 days
How it was run: as §2

| Compound | Echinochloa crus-galli post (herbicidal effect) [1] | Lindernia procumbens post (herbicidal effect) [2] | Scirpus juncoides post (herbicidal effect) [3] | Lindernia procumbens pre (herbicidal effect) [4] | Scirpus juncoides pre (herbicidal effect) [5] |
| --- | --- | --- | --- | --- | --- |
| CCCCOC(=O)N(c1ccccc1CN1CCCCOC1=O)S(=O)(=O)C(F)(F)F [2-5] | 4 (90%-99% herbicidal effect, phytotoxicity) | 4 (90%-99% herbicidal effect, phytotoxicity) | 4 (90%-99% herbicidal effect, phytotoxicity) | 4 (90%-99% herbicidal effect, phytotoxicity) | 4 (90%-99% herbicidal effect, phytotoxicity) |
| CC(C)COC(=O)N(c1ccccc1CN1CCCCOC1=O)S(=O)(=O)C(F)(F)F [2-6] | 4 (90%-99% herbicidal effect, phytotoxicity) | 4 (90%-99% herbicidal effect, phytotoxicity) | 4 (90%-99% herbicidal effect, phytotoxicity) | 4 (90%-99% herbicidal effect, phytotoxicity) | 4 (90%-99% herbicidal effect, phytotoxicity) |
| CCOC(=O)N(c1ccccc1CN1CCCCOC1=S)S(=O)(=O)C(F)(F)F [2-14] | 4 (90%-99% herbicidal effect, phytotoxicity) | 4 (90%-99% herbicidal effect, phytotoxicity) | 4 (90%-99% herbicidal effect, phytotoxicity) | 4 (90%-99% herbicidal effect, phytotoxicity) | 4 (90%-99% herbicidal effect, phytotoxicity) |
| CCCCOC(=O)N(c1ccccc1CN1CCCOC1=O)S(=O)(=O)C(F)(F)F [Compound 1-5] | 4 (90%-99% herbicidal effect, phytotoxicity) | 4 (90%-99% herbicidal effect, phytotoxicity) | 4 (90%-99% herbicidal effect, phytotoxicity) | 4 (90%-99% herbicidal effect, phytotoxicity) | 4 (90%-99% herbicidal effect, phytotoxicity) |
| CC(C)COC(=O)N(c1ccccc1CN1CCCOC1=O)S(=O)(=O)C(F)(F)F [Compound 1-6] | 4 (90%-99% herbicidal effect, phytotoxicity) | 4 (90%-99% herbicidal effect, phytotoxicity) | 4 (90%-99% herbicidal effect, phytotoxicity) | 4 (90%-99% herbicidal effect, phytotoxicity) | 4 (90%-99% herbicidal effect, phytotoxicity) |
| CCCCOC(=O)N(c1ccccc1CN1CCCOC1=S)S(=O)(=O)C(F)(F)F [Compound 1-16] | 4 (90%-99% herbicidal effect, phytotoxicity) | 4 (90%-99% herbicidal effect, phytotoxicity) | 4 (90%-99% herbicidal effect, phytotoxicity) | 4 (90%-99% herbicidal effect, phytotoxicity) | 4 (90%-99% herbicidal effect, phytotoxicity) |
| CC(C)COC(=O)N(c1ccccc1CN1CCCOC1=S)S(=O)(=O)C(F)(F)F [Compound 1-17] | 4 (90%-99% herbicidal effect, phytotoxicity) | 4 (90%-99% herbicidal effect, phytotoxicity) | 4 (90%-99% herbicidal effect, phytotoxicity) | 4 (90%-99% herbicidal effect, phytotoxicity) | 4 (90%-99% herbicidal effect, phytotoxicity) |
| CC1(C)COC(=O)N(Cc2ccccc2NS(=O)(=O)C(F)(F)F)C1 [Compound 1-23] | 4 (90%-99% herbicidal effect, phytotoxicity) | 4 (90%-99% herbicidal effect, phytotoxicity) | 4 (90%-99% herbicidal effect, phytotoxicity) | 4 (90%-99% herbicidal effect, phytotoxicity) | 4 (90%-99% herbicidal effect, phytotoxicity) |
| CCOC(=O)N(c1ccccc1CN1CC(C)(C)COC1=O)S(=O)(=O)C(F)(F)F [Compound 1-25] | 4 (90%-99% herbicidal effect, phytotoxicity) | 4 (90%-99% herbicidal effect, phytotoxicity) | 4 (90%-99% herbicidal effect, phytotoxicity) | 4 (90%-99% herbicidal effect, phytotoxicity) | 4 (90%-99% herbicidal effect, phytotoxicity) |
| CCCOC(=O)N(c1ccccc1CN1CC(C)(C)COC1=O)S(=O)(=O)C(F)(F)F [Compound 1-26] | 4 (90%-99% herbicidal effect, phytotoxicity) | 4 (90%-99% herbicidal effect, phytotoxicity) | 4 (90%-99% herbicidal effect, phytotoxicity) | 4 (90%-99% herbicidal effect, phytotoxicity) | 4 (90%-99% herbicidal effect, phytotoxicity) |
| CCCCOC(=O)N(c1ccccc1CN1CC(C)(C)COC1=O)S(=O)(=O)C(F)(F)F [Compound 1-27] | 4 (90%-99% herbicidal effect, phytotoxicity) | 4 (90%-99% herbicidal effect, phytotoxicity) | 4 (90%-99% herbicidal effect, phytotoxicity) | 4 (90%-99% herbicidal effect, phytotoxicity) | 4 (90%-99% herbicidal effect, phytotoxicity) |
| CC(C)COC(=O)N(c1ccccc1CN1CC(C)(C)COC1=O)S(=O)(=O)C(F)(F)F [Compound 1-28] | 4 (90%-99% herbicidal effect, phytotoxicity) | 4 (90%-99% herbicidal effect, phytotoxicity) | 4 (90%-99% herbicidal effect, phytotoxicity) | 4 (90%-99% herbicidal effect, phytotoxicity) | 4 (90%-99% herbicidal effect, phytotoxicity) |
| CCOC(=O)N(c1ccccc1CN1CC(C)(C)COC1=S)S(=O)(=O)C(F)(F)F [Compound 1-36] | 4 (90%-99% herbicidal effect, phytotoxicity) | 4 (90%-99% herbicidal effect, phytotoxicity) | 4 (90%-99% herbicidal effect, phytotoxicity) | 4 (90%-99% herbicidal effect, phytotoxicity) | 4 (90%-99% herbicidal effect, phytotoxicity) |
| CC(C)COC(=O)N(c1ccccc1CN1CC(C)(C)COC1=S)S(=O)(=O)C(F)(F)F [Compound 1-39] | 4 (90%-99% herbicidal effect, phytotoxicity) | 4 (90%-99% herbicidal effect, phytotoxicity) | 4 (90%-99% herbicidal effect, phytotoxicity) | 4 (90%-99% herbicidal effect, phytotoxicity) | 4 (90%-99% herbicidal effect, phytotoxicity) |
| CC1(C)CCN(Cc2ccccc2NS(=O)(=O)C(F)(F)F)C(=O)O1 [Compound 1-45] | 4 (90%-99% herbicidal effect, phytotoxicity) | 4 (90%-99% herbicidal effect, phytotoxicity) | 4 (90%-99% herbicidal effect, phytotoxicity) | 4 (90%-99% herbicidal effect, phytotoxicity) | 4 (90%-99% herbicidal effect, phytotoxicity) |
